Reference: US9505769B2 (ASCENEURON SA, priority 2013, dated 2016)
Where a name gives a salt, the structure may show the parent alone. Read-outs that look alike come from different tables or passages of the source.

Molecular target: T1, human muscarinic acetylcholine M1 receptor (Homo sapiens, UniProt P11229)
T1 construct: expressed in transfected cells; host or cells: CHO-K1
T1 sequence (P11229 1-460): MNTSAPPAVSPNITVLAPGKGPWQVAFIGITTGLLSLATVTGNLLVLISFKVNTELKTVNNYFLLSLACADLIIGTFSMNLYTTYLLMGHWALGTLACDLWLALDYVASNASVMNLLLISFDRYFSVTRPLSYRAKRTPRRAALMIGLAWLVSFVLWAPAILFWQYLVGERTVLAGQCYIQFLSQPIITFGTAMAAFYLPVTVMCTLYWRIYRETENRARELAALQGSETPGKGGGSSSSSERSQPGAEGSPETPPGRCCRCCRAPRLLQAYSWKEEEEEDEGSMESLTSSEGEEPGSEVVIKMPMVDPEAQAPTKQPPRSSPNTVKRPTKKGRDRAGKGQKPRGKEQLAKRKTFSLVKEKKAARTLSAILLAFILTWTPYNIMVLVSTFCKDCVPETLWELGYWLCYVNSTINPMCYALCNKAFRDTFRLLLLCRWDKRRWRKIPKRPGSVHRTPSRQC
Assay: M1 PAM Assay (IP-One HTRF, IP1 accumulation in M1-CHO cells)
Type: cell-based
Method: Then diluted compounds (0.6% DMSO final concentration) are added together with EC20 of acetylcholine and incubated with the cells for 30 min at 37° C., 5% CO2.
CHO-K1 cells stably transfected with human muscarinic acetylcholine M1 receptor are cultured in Ham's F12 medium containing 10% heat inactivated fetal calf serum, 2 mM L-glutamine and Penicillin-Streptomycin grown in a humidified atmosphere at 5% CO2/95% air at 37° C.

[1] = CHO-K1 cells stably transfected with human M1 receptor, compounds added with EC20 of acetylcholine (25 nM), 30 min, intracellular IP1 by IP-One HTRF, read-out: M1 PAM EC50

With `Cc1nc2c3c(nn2c(C)c1Cl)CN(C(=O)c1ccccc1C(C)N1CCN(C)CC1)C3` (stereo not shown) [Example 7, (3-chloro-2,4-dimethyl-7H-pyrrolo[3′,4′:3,4]pyrazolo[1,5-a]pyrimidin-8(9H)-yl)(2-(1-(4-methylpiperazin-1-yl)ethyl)phenyl)methanone] the EC50 [1] was 1000 to 3000 nM.
In the case of `CCc1nc2c3c(nn2c(C)c1Cl)CN(C(=O)c1ccccc1O[C@@H]1CCC[C@H]1O)C3` [Example 9, (anti)-(6-Chloro-5-ethyl-7-methyl-1H,3H-2,4,7a,8-tetraaza-cyclopenta[a]inden-2-yl)-[2-(2-hydroxy-cyclopentyloxy)-phenyl]-methanone or (anti)-(6-Chloro-5-methyl-7-ethyl-1H,3H-2,4,7a,8-tetraaza-cyclopenta[a]inden-2-yl)-[2-(2-hydroxy-cyclopentyloxy)-phenyl]-methanone], the EC50 [1] is reported as 1000 to 3000 nM.
`Cc1nc2c3c(nn2c(C)c1Cl)CN(C(=O)c1ccc(F)cc1O[C@@H]1CCNC1=O)C3` [Example 11, (R)-3-(2-(3-chloro-2,4-dimethyl-8,9-dihydro-7H-pyrrolo[3′,4′:3,4]pyrazolo[1,5-a]pyrimidine-8-carbonyl)-5-fluorophenoxy)pyrrolidin-2-one] gave an EC50 [1] of 200 to 1000 nM.
With `CN1CCC(Oc2cc(F)ccc2C(=O)N2Cc3nn4cc(Cl)cnc4c3C2)CC1` [Example 12, (3-chloro-7H-pyrrolo[3′,4′:3,4]pyrazolo[1,5-a]pyrimidin-8(9H)-yl)(4-fluoro-2-((1-methylpiperidin-4-yl)oxy)phenyl)methanone] the EC50 [1] was 200 to 1000 nM.
In the case of `Cc1nc2c3c(nn2c(C)c1Cl)CN(C(=O)c1ccc(C#N)cc1OCCN(C)C)C3` [Example 14, 4-(3-chloro-2,4-dimethyl-8,9-dihydro-7H -pyrrolo[3′,4′:3,4]pyrazolo[1,5-a]pyrimidine-8-carbonyl)-3-(2-(dimethylamino)ethoxy)benzonitrile], the EC50 [1] is reported as 200 to 1000 nM.
Work on `Cc1nc2c3c(nn2c(C)c1Cl)CN(C(=O)c1ccc(F)cc1OCCN1CCOCC1)C3` [Example 15, (3-Chloro-2,4-dimethyl-7H-pyrrolo[3′,4′:3,4]pyrazolo[1,5-a]pyrimidin-8(9H)-yl)(4-fluoro-2-(2-morpholinoethoxy)phenyl)methanone] yielded an EC50 [1] of 1000 to 3000 nM.
`Cc1nc2c3c(nn2c(C)c1Cl)CN(C(=O)c1ccc(F)cc1OCCN1CCCC1)C3` [Example 16, (3-Chloro-2,4-dimethyl-7H-pyrrolo[3′,4′:3,4]pyrazolo[1,5-a]pyrimidin-8(9H)-yl)(4-fluoro-2-(2-pyrrolidinoethoxy)phenyl)methanone] showed an EC50 [1] of under 200 nM.
With `Cc1nc2c3c(nn2c(C)c1Cl)CN(C(=O)c1ccc(F)cc1OCc1cccnc1)C3` [Example 19, (6-Chloro-5,7-dimethyl-1H,3H-2,4,7a,8-tetraaza-cyclopenta[a]inden-2-yl)-[4-fluoro-2-(pyridin-3-ylmethoxy)-phenyl]-methanone] the EC50 [1] was 1000 to 3000 nM.
`Cc1nc2c3c(nn2c(C)c1Cl)CN(C(=O)c1ccc(F)cc1OCCn1cncn1)C3` [Example 20] gave an EC50 [1] of 200 to 1000 nM.
`Cc1nc2c3c(nn2c(C)c1Cl)C(CO)N(C(=O)c1ccccc1OC1CCN(C)CC1)C3` (stereo not shown) [Example 23, (6-Chloro-1-hydroxymethyl-5,7-dimethyl-1H,3H-2,4,7a,8-tetraaza-cyclopenta[a]inden-2yl)-[2-(1-methyl-piperidin-4-yloxy)-phenyl]-methanone] was tested, and the EC50 [1] was 1000 to 3000 nM.
`CCOC(=O)N1CCC(Oc2cc(F)ccc2C(=O)N2Cc3nn4c(C)c(Cl)c(C)nc4c3C2)CC1` [Example 28, 4-[2-(6-Chloro-5,7-dimethyl-1H,3H-2,4,7a,8-tetraaza-cyclopenta[a]indene-2-carbonynl)-5-fluoro-phenoxy]-piperidine-1-carboxylic acid ethyl ester] showed an EC50 [1] of 1000 to 3000 nM.
`Cc1nc2c3c(nn2c(C)c1Cl)CN(C(=O)c1ccc(F)cc1OC1CCN(C(CO)CO)CC1)C3` [Example 29, (6-Chloro-5,7-dimethyl-1H,3H-2,4,7a8-tetraaza-cyclopenta[a]inden-2-y)-{4-fluoro-2-[1-(2-hydroxy-1-hydroxymethyl-ethyl)-piperidin-4-yloxy]-phenyl}-methanone] gave an EC50 [1] of under 200 nM.
In the case of `Cc1nc2c3c(nn2c(C)c1Cl)CN(C(=O)c1ccc(F)cc1OC1CN(CCO)C1)C3` [Example 30, (3-chloro-2,4-dimethyl-7H-pyrrolo[3′,4′:3,4]pyrazolo[1,5-a]pyrimidin-8(9H)-yl)(4-fluoro-2-((1-(2-hydroxyethyl)azetidin-3-yl)oxy)phenyl)methanone], the EC50 [1] is reported as 200 to 1000 nM.
For `Cc1nc2c3c(nn2c(C)c1Cl)CN(C(=O)c1ccc(Br)cc1OCCN(C)C)C3` [Example 31, (4-bromo-2-(2-(dimethylamino)ethoxy)phenyl)(3-chloro-2,4-dimethyl-7H-pyrrolo[3′,4′:3,4]pyrazolo[1,5-a]pyrimidin-8(9H)-yl)methanone], the EC50 [1] was 200 to 1000 nM.
`Cc1nc2c3c(nn2c(C)c1Cl)CN(C(=O)c1ccc(F)cc1OC1CCN(CCO)CC1)C3` [Example 32, (6-Chloro-5,7-dimethyl-1H,3H-2,4,7a,8-tetraaza-cyclopenta[a]inden-2-yl)-{4-fluoro-2-[1-(2-hydroxy-ethyl)-piperidin-4-yloxy]-phenyl}-methanone] showed an EC50 [1] of under 200 nM.
Compound `O=C(c1ccc(F)cc1OC1CCNCC1)N1Cc2nn3cc(Cl)cnc3c2C1` [Example 33, (3-chloro-7H-pyrrolo[3′,4′:3,4]pyrazolo[1,5-a]pyrimidin-8(9H)-yl)(4-fluoro-2-(piperidin-4-yloxy)phenyl)methanone hydrochloride] has an EC50 [1] of 200 to 1000 nM.
Compound `O=C(c1ccc(F)cc1OC1CCN(CCF)CC1)N1Cc2nn3cc(Cl)cnc3c2C1` [Example 34] has an EC50 [1] of 200 to 1000 nM.
`O=C(c1ccc(F)cc1OC1CCN(CCO)CC1)N1Cc2nn3cc(Cl)cnc3c2C1` [Example 35, (3-chloro-7H-pyrrolo[3′,4′:3,4]pyrazolo[1,5-a]pyrimidin-8(9H)-yl)(4-fluoro-2-((1-(2-hydroxyethyl)piperidin-4-yl)oxy)phenyl)methanone] gave an EC50 [1] of 200 to 1000 nM.
`Cc1nc2c3c(nn2c(C)c1Cl)CN(C(=O)c1ccc(F)cc1O[C@H]1C[C@H]2CC[C@@H](C1)N2CCF)C3` [Example 36, (3-chloro-2,4-dimethyl-7H-pyrrolo[3′,4′:3,4]pyrazolo[1,5-a]pyrimidin-8(9H)-yl)(4-fluoro-2-{[(3-endo)-8-(2-fluoroethyl)-8-azabicyclo[3.2.1]oct-3-yl]oxy}phenyl)methanone] showed an EC50 of under 200 nM.
`Cc1nc2c3c(nn2c(C)c1Cl)CN(C(=O)c1ccc(F)cc1O[C@H]1C[C@H]2CC[C@@H](C1)N2CCO)C3` [Example 37, (3-chloro-2,4-dimethyl-7H-pyrrolo[3′,4′:3,4]pyrazolo[1,5-a]pyrimidin-8(9H)-yl)(4-fluoro-2-{[(3-endo)-8-(2-hydroxyethyl)-8-azabicyclo[3.2.1]oct-3-yl]oxy}phenyl)methanone] showed an EC50 of under 200 nM.
`Cc1nc2c3c(nn2c(C)c1Cl)CN(C(=O)c1ccc(F)cc1OCCn1ccnc1C)C3` [Example 40, (3-chloro-2,4-dimethyl-7H-pyrrolo[3′,4′:3,4]pyrazolo[1,5-a]pyrimidin-8(9H)-yl)(4-fluoro-2-(2-(2-methyl-1H-imidazol-1-yl)ethoxy)phenyl)methanone] was tested, and the EC50 [1] was 1000 to 3000 nM.
`Cc1ccc(CCOc2cc(F)ccc2C(=O)N2Cc3nn4c(C)c(Cl)c(C)nc4c3C2)cn1` [Example 42, (3-chloro-2,4-dimethyl-7H-pyrrolo[3′,4′:3,4]pyrazolo[1,5-a]pyrimidin-8(9H)-yl)(4-fluoro-2-(2-(6-methylpyridin-3-yl)ethoxy)phenyl)methanone] was tested, and the EC50 [1] was 200 to 1000 nM.
